These results are taken from paper PMC9138090, “Study on the Neuroprotective, Radical-Scavenging and MAO-B Inhibiting Properties of New Benzimidazole Arylhydrazones as Potential Multi-Target Drugs for the Treatment of Parkinson’s Disease” (Antioxidants, 2022).

Structures are written as SMILES. Counter-ions that a name gives are not always drawn.

Data set [1] deals with rat brain synaptosomes. The data set is described as follows: 6-OHDA-induced neurotoxicity, GSH level. Format: cell-based. The note with it: for restoration of GSH level vs. 6-OHDA treatment: 10 µM pretreatment, 6-OHDA 150 mmol/L 1 h. Here is the method:
(§1) Synaptosomes were prepared from brains of adult male Wistar rats. The brains were homogenized in 10 volume of cold buffer 1, containing 5 mM HEPES and 0.32 M sucrose (pH = 7.4). The brain homogenate was centrifuged twice at 1000× g for 5 min at 4 °C. The supernatant was collected and centrifuged 3 times at 10,000× g for 20 min at 4 °C. The pellet was re-suspended in ice-cold buffer 1. The synaptosomes were isolated by using Percoll reagent to prepare the gradient. Synaptosomes were re-suspended and incubated in buffer 2, containing 290 mM NaCl, 0.95 mM MgCl2 × 6H2O, 10 mM KCl, 2.4 mM CaCl2 × H2O, 2.1 mM NaH2PO4, 44 mM HEPES, and 13 mM D-glucose. Incubations were performed in a 5% CO2 + 95% O2 atmosphere. The content of synaptosomal protein was determined according to the method of Lowry et al. using bovine serum albumin as a standard.
(§2) The metabolism and oxidation of dopamine cause reactive oxygen radicals and reactive quinones to be produced, which could lead to neurotoxicity and neurodegeneration. The synaptosomes were incubated with the compounds (10 µM) for 30 min and then 6-hydroxydopamnine (150 mmol/L) was used to induce neurotoxicity. […] After 1 h, they were centrifuged on a microcentrifuge for 1 min at 15,000 rpm. The precipitates were gently mixed with buffer B and glucose and centrifuged for a second time at 15,000 rpm for 1 min. After the second wash, buffer B and glucose were added to the precipitates.
(§3) In the presented experiments, an in vitro assessment of the possible antioxidant and neuroprotective effects of the newly synthetized compounds was performed in a model of 6-OHDA induced toxicity in rat brain synaptosomes. 6-OHDA is a neurotoxicant that structurally resembles dopamine and can be used in different in vivo and in vitro models for neurotoxicity. This model resembles the histological, biochemical, and physiological characteristics of neurodegenerative diseases such as Parkinson’s and Alzheimer’s disease. […] However, their uptake into brain synaptosomes is similar among primates and rodents and they are suitable in vitro models for PD. The main mechanism of 6-OHDA toxicity includes induction of oxidative stress. It undergoes auto-oxidation or metabolic degradation to p-quinone and produces hydrogen peroxide, superoxide, and hydroxyl radicals. The process causes lipid peroxidation, protein oxidation, and DNA oxidation and finally results in oxidative stress and mitochondrial dysfunction. Rat brain synaptosomes were pretreated with compounds 3e, 3h, 3i, 3m, melatonin, and rasagiline (10 μM); after that, the samples were subjected to 6-OHDA (150 mmol/L, 1 h). The protective effects were evaluated by measurement of synaptosomal viability (MTT-test) and GSH levels (Figure 3).

For data set [2], the system named is rat brain synaptosomes. The data set is described as follows: 6-OHDA-induced neurotoxicity, synaptosomal viability. Format: cell-based. The following applies: for increase of synaptosomal viability vs. 6-OHDA treatment: 10 µM pretreatment, 6-OHDA 1 h. As to the method: as §1
Synaptosomal viability was measured by (3-(4,5)-dimethylthiazol-2-yl)-2,5-diphenyl tetrazolium bromide)-test, described by Mungarro-Menchaca et al. The synaptosomes were incubated with the compounds and then treated with (3-(4,5)-dimethylthiazol-2-yl)-2,5-diphenyl tetrazolium bromide) solution (0.5 mg/mL) for 1 h at 37 °C. After incubation they were centrifuged at 15,000× g for 1 min. The formed formazan crystals were dissolved in DMSO (Dimethyl sulfoxide). The extinction was measured spectrophotometrically at λ = 580 nm.
as §2, §3

Data set [3] in a line: Fe(II)-induced oxidative damage of lecithin (TBA-RS). The following applies: 90 µmol/L, lecithin 1 mg/mL, FeCl2 0.1 mmol/L. Here is the method: The classical method of determining the TBA-reactive substances at 532 nm as described by Asakawa and Matsushita has been used. Two groups of measurement compositions named controls and samples were prepared in phosphate buffer (K2HPO4/KH2PO4, pH 7.4) for each of the used substrates. Both of them contained equivalent concentrations of lecithin (1 mg/mL) or 2-deoxyribose (0.5 mmol/L) and FeCl2 (0.1 mmol/L). In the controls, the tested hydrazones have been omitted and in the samples the effect of the newly designed compounds at the concentrations indicated below the figures has been determined. The obtained samples were incubated at 37 °C for 30 min. The reaction was stopped, and after adding 0.5 mL 2.8% trichloroacetic acid and 0.5 mL of thiobarbituric acid, the samples were heated in boiling water for 20 min. The lecithin containing samples were centrifuged at 3000 rpm for 20 min and the supernatant was aspired out. The results have been presented as a percentage of the control sample, treated only with ferrous iron where we expected maximum oxidative damage under the described conditions.

For data set [4], the target named is T1, human recombinant MAO-B (hMAO-B) enzyme (Homo sapiens, UniProt P27338).
T1 construct: purchased Invitrogen, USA
T1 sequence (P27338 1-520): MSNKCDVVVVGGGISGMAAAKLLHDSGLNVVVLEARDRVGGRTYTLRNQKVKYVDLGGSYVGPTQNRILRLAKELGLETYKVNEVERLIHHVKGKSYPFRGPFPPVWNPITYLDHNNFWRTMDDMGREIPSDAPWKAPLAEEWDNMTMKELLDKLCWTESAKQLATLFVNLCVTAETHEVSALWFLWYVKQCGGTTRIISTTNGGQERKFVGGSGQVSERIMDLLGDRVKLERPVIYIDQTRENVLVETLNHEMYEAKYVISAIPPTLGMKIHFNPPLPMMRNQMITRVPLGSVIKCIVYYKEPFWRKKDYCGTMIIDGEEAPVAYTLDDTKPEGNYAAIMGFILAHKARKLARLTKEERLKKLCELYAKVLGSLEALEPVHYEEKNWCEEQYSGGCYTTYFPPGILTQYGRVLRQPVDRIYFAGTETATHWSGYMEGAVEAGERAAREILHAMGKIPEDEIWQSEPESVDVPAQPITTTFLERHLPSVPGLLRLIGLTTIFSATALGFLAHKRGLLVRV
The data set is described as follows: hMAO-B activity, Amplex UltraRed fluorometric method. The class given is biochemical. The note with it: 1 µM. As to the method:
The effects of the test compounds on human recombinant MAO-B (hMAO-B) enzyme were studied by the Amplex UltraRed reagent (Sigma-Aldrich Chemie GmbH) fluorometric method with small modifications. The working solutions of the compounds, reagents, hMAO-B, and reaction buffers were prepared according to the producer’s instructions. The tyramine hydrochloride was used as a substrate. The reaction mixture contained a stock solution of Amplex Red (10 mM in dimethyl sulfoxide), the reaction buffer (0.05 M sodium phosphate) at pH 7.4, and the storage solution of horseradish peroxidase (10 U/mL). There were pure MAO-B working solutions in the reaction buffer and MAO-B working solution containing hydrogen peroxide as controls. The final concentration of the test compounds in the well was 1 μM. The compounds together with hMAO-B were embedded in a 96-well plate (8 wells for each compound), and then the plate was incubated for 30 min (dark, at 37 °C). Thereafter, the reaction was initiated by 50 μL Mix Solution: Amplex®Red reagent, horseradish peroxidase, and tyramine as an enzyme substrate in the reaction buffer. The fluorescence was measured every 30 min at 0, 30, 60, 90, 120, and 150 min), in dark, while shaking the reaction mixture at constant temperature of 37 °C. The fluorimetric measurements were assessed using a Synergy 2 Microplate Reader.
Monoamine oxidase B catalyzes dopamine metabolism and oxidation leading to the formation of reactive oxygen species and reactive quinones, which provoke dopamine neurotoxicity and neurodegeneration. In the next experiments, the compounds showing the best safety profile and the most promising neuroprotective activity (3d, 3e, 3h, 3i, 3m, 3n, 3p) were evaluated for their potential inhibitory activity on hMAOB. Selegiline and rasagiline as potent MAO-B inhibitors were used as standard compounds for comparison.

Data set [5] concerns SH-SY5Y cells. The data set is described as follows: MTT cytotoxicity on SH-SY5Y cells. The note with it: MTT test, 24 h incubation; read-out: IC50, in vitro cytotoxicity on SH-SY5Y cells. Format: cell-based, human. Here is the method:
(§4) Human neuroblastoma cell line SH-SY5Y was obtained from the European Collection of Cell Cultures (ECACC, Salisbury, UK). The cells were maintained in 75 cm^2 flasks at 37 °C in a humidified atmosphere with 5% CO2 and cultured in RPMI 1640 medium, supplemented with 10% fetal bovine serum and 2 mM L-glutamine.
(§5) MTT (Sigma-Aldrich Chemie GmbH, Schnelldorf, Germany) assay is based on interaction between tetrazolium dye 3-(4,5-dimethylthiazol-2-yl)-2,5-diphenyltetrazolium bromide and succinic dehydrogenase in the living cells’ mitochondria. In this reaction, the formed purple formazan crystals indicate the presence of viable cells. SH-SY5Y cells were seeded in 96-well microplates at a density 2.5 × 10^4 cells/well and allowed to attach to the well surface at 37 °C in a humidified atmosphere with 5% CO2 (24 h). Different concentrations of compounds ([…]) were added to cells and incubated for 24 h. For each concentration, a set of at least 8 wells were used. After the treatment, the solution in each well was substituted with MTT (3-(4,5-dimethylthiazol-2-yl)-2,5-diphenyltetrazolium bromide) solution (0.5 mg/mL in culture medium). The microplates were further incubated for 3 h at 37 °C and the obtained formazan crystals were dissolved by 100 µL/well of DMSO. The absorbance was measured in a multiplate reader Synergy 2 (BioTek Instruments, Inc, Highland Park, Winooski, VT, USA) at 570 nm (690 nm for background absorbance).
(§6) An important step in the development of new pharmacologically active compounds is the establishment of their safety profile. An in vitro toxicity evaluation was carried out on the neuroblastoma cell line SH-SY5Y, which is a well-established model in neuroscience. The neuroblastoma SH-SY5Y are human derived cells with relatively homogeneous neuroblast-like structure. The cells express a dopamine-β-hydroxylase and tyrosine hydroxylase enzyme activity, specific types of human proteins and protein isoforms. The possible neurotoxic effects of the potential drug candidates were measured by cell viability assay (MTT-test). The IC50 values were used as a robust parameter for comparison. The test compounds were dissolved in DMSO and serially diluted in cell culture medium to achieve final concentrations ranging from 1 to 500 µM; the culture medium containing DMSO in the corresponding concentration was used as untreated controls. A concentration dependent effect on cell viability was observed after 24 h incubation.
Background: Formazan colour is commonly taken as a measure of viable cells.

Data set [6] can be described thus: MTT cytotoxicity on SH-SY5Y cells. Format: cell-based, human. The following applies: human, SH-SY5Y neuroblastoma cells, MTT test, 24 h incubation; read-out: IC50, in vitro cytotoxicity on SH-SY5Y cells. Here is the method: as §4, §5, §6
The subject of data set [7] is SH-SY5Y cells. The data set is described as follows: H2O2-induced oxidative stress model in SH-SY5Y cells. The class given is cell-based, human. The following applies: 90 min pre-incubation, H2O2 1 mM 15 min. Here is the method: SH-SY5Y cells were seeded in 96-well plates at a density of 3.5 × 10^4/well and allowed to attach at the wells’ bottom overnight. […] Afterwards, the SH-SY5Y cells were washed with phosphate-buffered saline (PBS) to remove the extracellular amount of the test compounds. […] Then, the contents of all wells were changed with culture medium. After 24 h, the amount of attached viable cells was evaluated by MTT assay. […] Rasagiline and melatonin (Sigma-Aldrich Chemie GmbH) were used as reference compounds because of their well-established neuroprotective activity. […] The toxic mechanisms of hydrogen peroxide include the generation of reactive hydroxyl radicals and formation of products which could damage cellular lipids, proteins and DNA. […] For comparison, the effects of two compounds with well established antioxidant activity—rasagiline and melatonin—were also evaluated.

In the case of `NCCc1cc(O)c(O)cc1O` [6-OHDA, 6-hydroxydopamine, reference compound], the “reduction of GSH level compared to untreated controls” value in the data set on rat brain synaptosomes [1] (6-OHDA 150 mmol/L, 1 h) is recorded as 50%. For the same compound, the “reduction of synaptosomal vitality compared to untreated controls” value in the data set on rat brain synaptosomes [2] (6-OHDA, 1 h) was found to be 56%.
Consider `COc1cc(C=NNC(=O)CCn2c(=S)n(CCC(=O)NN=Cc3cc(OC)c(O)c(OC)c3)c3ccccc32)cc(OC)c1O` [3d, 3,3′-(2-Thioxo-1H-benzo[d]imidazole-1,3(2H)-diyl)bis(N′-(4-hydroxy-3,5-dimethoxybenzylidene)propanehydrazide)], for which the melting point (in general, the temperature of the solid-liquid transition) lay in the range of 284 to 286 °C. Also, in data set [3], the “sample/control absorbance ratio (% of the control), lecithin peroxidation” value is reported as “around 40%”. Further, in data set [4], the “inhibitory effect on hMAOB activity (in words)” value was “statistically significant MAO-B inhibitory effects”. For the same compound, the IC50 (commonly the concentration that inhibits the measured activity by half) in the data set on SH-SY5Y cells [5] was 268 µM. In data set [6], the IC50 at 24 h was greater than 250 µM.
With `C#CCN[C@@H]1CCc2ccccc21` [Rasagiline HCl, Rasagiline], the “restoration of GSH level vs. 6-OHDA treatment” value in the data set with rat brain synaptosomes [1] worked out at 60%. Further, the “cell viability protection vs. H2O2-treatment” value turned out to be 10% with SH-SY5Y cells [7] (1 µM), 20% in the data set on SH-SY5Y cells [7] (10 µM) and 39% with SH-SY5Y cells [7] (50 µM). For the same compound, in data set [6], the IC50 at 24 h was greater than 500 µM. Besides, in the data set with rat brain synaptosomes [2], the “increase of synaptosomal viability vs. 6-OHDA treatment” value was 61%.
For `COc1ccc2[nH]cc(CCNC(C)=O)c2c1` [Melatonin], the “restoration of GSH level vs. 6-OHDA treatment” value in the data set with rat brain synaptosomes [1] was determined as 70%. Also, the “sample/control absorbance ratio (% of the control), lecithin peroxidation” value in data set [3] is recorded as 75%. Besides, the “cell viability protection vs. H2O2-treatment” value with SH-SY5Y cells [7] (1 µM) was determined as 20%; in the data set on SH-SY5Y cells [7] (10 µM) it was 29%; in the data set on SH-SY5Y cells [7] (50 µM), 52%. Further, the IC50 at 24 h in data set [6] was greater than 500 µM. Moreover, the “increase of synaptosomal viability vs. 6-OHDA treatment” value in the data set on rat brain synaptosomes [2] worked out at 68%.
